Test results: patent US7704957B2, “Composition for inhibiting HIV activity extracted from Paecilomyces sp. (Tochu-kaso) J300” (priority 2001, dated 2010)
Residues, ends and D or L forms follow the SMILES beside them.

Legend:
HIV [1] = assay: Functional mechanism: sample added 30 minutes before or after virus infection; assay type: cell-based; details: sample 30 minutes before infection, FIG. 7
Description: To determine whether a material functions or not in the cell, the mixture of cell and sample is incubated for 30 minutes then infected with virus. […] In these case, the samples permeate the membranes of the cell and suppress the propagation of the virus in the cell, as well as the samples attach on the surface of the cell and suppress the introduction of the virus into the cell (FIG. 7)
In addition, after the cell was infected with the virus and incubated for 30 minutes, then the extracts of Tochu-kaso J300 were administered. If the functional site of the active material is out of the cell, the anti-HIV activity would not be detected; on the other hand, if the functional site is in the cell, the activity would be detected. […] This proves that the active material suppresses the propagation of the virus in the cell, even when the sample is administered after a long time after the infection of the cell with virus (FIG. 8).

HIV [2] = assay: Anti-HIV activity: survivability of cells protected from destruction by HIV, XTT method (National Cancer Institute method); assay type: cell-based; details: fractions Dong 1-2-1 to 1-2-8
Description: In FIGS. 2 to 8, 11 and 18, the term “Infected” (diamond mark ♦) is for the samples that a reagent is applied after the cells are infected with the virus to observe the protection of cells from the cell destruction of HIV. The term “Uninfected” (square mark □) is for the samples that only reagent is added with different concentration to observe the toxicity of the reagent according to the concentration. Further, X axis represents the concentration of the sample and Y axis represents the survivability of the cells in percentages (%).
In the present invention, the measurement of anti-HIV activity followed the method of National Cancer Institute (U.S.A.). In the method, survivability of cells that are protected from the destruction due to HIV was measured when the cells were treated with the active component of the present invention to determine the anti-HIV activity of the material.
In detail, the mixture of cell+HIV+sample (active compound) was cultured for 1 week, and then cell toxicity was measured by XTT method. […]
In this example, colorimetric assay was adopted to observe the growth and death of the cells, which uses the fact that tetrazole salt (MTT, XTT, WST-1) is broken only in the living cell to form non-soluble formazan structure. By quantitating the amount of the formazane wih ELISA method, the amount of living cell is measured quantitatively. […]

## CC(C)CC(NC(=O)C1CCCN1)C(=O)O (stereo not drawn) [Dong 1-2-5, 4-methyl-2-[(pyrolidine-2-carbonyl)-2-amino]pentanoic acid] (H-Pro-Leu-OH; configuration not given here)
HIV [1]
  activity when sample is added to the cell and virus infected 30 minutes later: showed activity
HIV [2]
  anti-AIDS activity of fractions of Dong 1-2: more intense activity compared to others

## COC(C)C1NC(=O)C(CCC(=O)O)NC1=O (stereo not shown) [Dong 1-2-4, 3-[5-(methoxy-ethyl)-3,6-dioxo-piperazine-2-yl]propionic acid]
HIV [1]
  activity when sample is added to the cell and virus infected 30 minutes later: showed activity
HIV [2]
  anti-AIDS activity of fractions of Dong 1-2: more intense activity compared to others
